Measurements taken from patent US20250127790A1, “COMBINATION THERAPY USING VPS34 INHIBITORS” (Deciphera Pharmaceuticals, LLC, priority 2021, published 2025).

Assays:
[1] = tested on: A-498 renal cell carcinoma cells; assay: qRT-PCR, combination with STING agonist ADU-S100, A-498 cells; type: cell-based, Human; details: 2 μM Compound 1 or 2, 50 μM ADU-S100, 24 h
Method: A-498 cells were grown in Minimal Essential Medium containing 10% fetal bovine serum. Cells were then incubated for 2 days at 37 degrees Celsius, 5% CO2, and 95% humidity. A-498 cells were treated with DMSO control, 2 μM Compound 1 or 2 μM Compound 2 in combination with 50 μM STING agonist ADU-S100 for 24 h. Cells were washed with PBS and RNA was isolated using the PureLink RNA kit (#12183018A, Thermo Fisher Scientific) according to the manufacturer's protocol. Genomic DNA was removed using DNA-binding columns (RNeasy plus kit, #74134, Qiagen) and/or DNase treatment (#12185010, Thermo Fisher Scientific). RNA was quantified using NanoDrop (Thermo Fisher Scientific) and 50 ng/μL RNA was used for cDNA synthesis with SuperScript IV VILO Master Mix (#11756050, Thermo Fisher Scientific). Quantitative RT-PCR (qRT-PCR) was run with diluted cDNA (1:25 or 1:12.5), PowerUp SYBR Green Master Mix (#A25741, Thermo Fisher Scientific), and 200 nM primers (see below) on a CFX Connect RT-PCR system (BioRad). Data was analyzed using the ΔΔCT method. Results are mean±SEM of three independent experiments.

[2] = tested on: 786-O renal cell carcinoma cells; assay: qRT-PCR, combination with STING agonist ADU-S100, 786-O cells; type: cell-based, Human; details: 2 μM Compound 1 or 2, 50 μM ADU-S100, 24 h
Method: 786-O cells were grown in RPMI-1640 medium containing 10% fetal bovine serum. Cells were then incubated for 2 days at 37 degrees Celsius, 5% CO2, and 95% humidity. […] cells were treated with DMSO control, 2 μM Compound 1 or 2 μM Compound 2 in combination with 50 μM STING agonist ADU-S100 for 24 h. Cells were washed with PBS and RNA was isolated using the PureLink RNA kit (#12183018A, Thermo Fisher Scientific) according to the manufacturer's protocol. Genomic DNA was removed using DNA-binding columns (RNeasy plus kit, #74134, Qiagen) and/or DNase treatment (#12185010, Thermo Fisher Scientific). RNA was quantified using NanoDrop (Thermo Fisher Scientific) and 50 ng/μL RNA was used for cDNA synthesis with SuperScript IV VILO Master Mix (#11756050, Thermo Fisher Scientific). Quantitative RT-PCR (qRT-PCR) was run with diluted cDNA (1:25 or 1:12.5), PowerUp SYBR Green Master Mix (#A25741, Thermo Fisher Scientific), and 200 nM primers (see below) on a CFX Connect RT-PCR system (BioRad). Data was analyzed using the ΔΔCT method. Results are mean±SEM of three independent experiments.

[3] = tested on: A-498 renal cell carcinoma cells; assay: Cytokine secretion assay, combination with ADU-S100, A-498 cells; type: cell-based, human; details: 2 μM Compound 1 or 2, 50 μM ADU-S100, 24 h
Method: (§1) A-498 cells were treated with DMSO control, 2 μM Compound 1 or 2 μM Compound 2 in combination with 50 μM STING agonist ADU-S100 for 24 h. Cell culture medium was centrifuged at 1600 rpm for 10 min at 4° C. and obtained supernatant stored at −80° C. Cytokine levels were quantified using following Meso Scale Discovery (MSD) assays: human R-PLEX RANTES/CCL5 (#F21ZN), U-PLEX CXCL10/IP-10 (#K151UFK). Assays were run on the SECTOR Quickplex Imager and analyzed using Discovery Workbench version 4.0 (MSD). Low concentrations of human IFNβ were determined using High Sensitivity IFN Beta ELISA Kit, (PBL assay science, #41415-1).

[4] = tested on: 786-O renal cell carcinoma cells; assay: Cytokine secretion assay, combination with ADU-S100, 786-O cells; type: cell-based, human; details: 2 μM Compound 1 or 2, 50 μM ADU-S100, 24 h
Method: as §1, with “786-O” for “A-498”

B16-F10 melanoma cells = assay: qRT-PCR, combination with ADU-S100, B16-F10 cells; type: cell-based, Murine; details: for IFNB1 mRNA expression: 2 μM Compound 1 or 2, 10 μM ADU-S100, 4 h; for CCL5 mRNA expression / CXCL10 mRNA expression: 2 μM Compound 1 or 2, 10 μM ADU-S100, 24 h
Method: B16-F10 cells were grown in DMEM/F12 medium containing 10% fetal bovine serum. Cells were then incubated for 2 days at 37 degrees Celsius, 5% CO2, and 95% humidity. […] cells were reversely transfected with scrambled siRNA control (siSCR) or siRNA targeting STING (siSTING). […] Cells were washed with PBS and RNA was isolated using the PureLink RNA kit (#12183018A, Thermo Fisher Scientific) according to the manufacturer's protocol. Genomic DNA was removed using DNA-binding columns (RNeasy plus kit, #74134, Qiagen) and/or DNase treatment (#12185010, Thermo Fisher Scientific). RNA was quantified using NanoDrop (Thermo Fisher Scientific) and 50 ng/μL RNA was used for cDNA synthesis with SuperScript IV VILO Master Mix (#11756050, Thermo Fisher Scientific). Quantitative RT-PCR (qRT-PCR) was run with diluted cDNA (1:25 or 1:12.5), PowerUp SYBR Green Master Mix (#A25741, Thermo Fisher Scientific), and 200 nM primers (see below) on a CFX Connect RT-PCR system (BioRad). Data was analyzed using the ΔΔCT method. Results are mean±SEM of three independent experiments.

Row | SMILES | CCL5 mRNA expression [1] | CXCL10 mRNA expression [1] | IFNB1 mRNA expression [1] | CCL5 mRNA expression [2] | CXCL10 mRNA expression [2] | IFNB1 mRNA expression [2] | CCL5 secretion [3] | CXCL10 secretion [3] | IFNβ secretion [3] | CCL5 secretion [4] | CXCL10 secretion [4] | IFNβ secretion [4] | IFNB1 mRNA expression (B16-F10 melanoma cells) | CCL5 mRNA expression (B16-F10 melanoma cells) | CXCL10 mRNA expression (B16-F10 melanoma cells)
1 | Nc1ncnc2c1ncn2[C@@H]1O[C@@H]2COP(=O)([S-])O[C@@H]3[C@H](O)[C@@H](COP([O-])(=S)O[C@H]2[C@H]1O)O[C@H]3n1cnc2c(N)ncnc21.[Na+].[Na+] (stereo partly drawn) [ADU-S100, reference compound] | increased | increased | no effect | increased | no effect | no effect | mildly increased | mildly increased | no effect | significantly increased | significantly increased | mild effect | did not increase | did increase | did increase
2 | C[C@@H]1COCCN1c1cc(N2CCCC[C@@H]2C(F)(F)F)[nH]c(=O)c1 [Compound 1, 4-((R)-3-methylmorpholino)-6-((R)-2-(trifluoromethyl)piperidin-1-yl)pyridin-2(1H)-one] | mildly increased | mildly increased | mildly increased | increased | increased | increased | increased | increased | increased | increased | increased | increased | did not increase | mildly increase | mildly increase
3 | C[C@@H]1COCCN1c1cc(=O)n2c(n1)N(Cc1cncc(Cl)c1)[C@H](C(F)(F)F)CC2 [Compound 2, (S)-9-((5-chloropyridin-3-yl)methyl)-2-((R)-3-methylmorpholino)-8-(trifluoromethyl)-6,7,8,9-tetrahydro-4H-pyrimido[1,2-a]pyrimidin-4-one] | mildly increased | mildly increased | mildly increased | increased | increased | increased | increased | increased | increased | increased | increased | increased | did not increase | mildly increase | mildly increase
